According to publication PMC3681608 (Nature chemical biology, 2010):
Where a name gives a salt, the structure may show the parent alone.

Assays:
[1] = biological target: CK1ε (Homo sapiens, UniProt P49674); test: fluorescence ligand dot blot with purified kinase at […] pyrvinium; type: binding
[2] = biological target: CK1γ1 (Homo sapiens, UniProt Q9HCP0); test: as above; type: binding
Chain of CK1γ1 (Q9HCP0 whole entry): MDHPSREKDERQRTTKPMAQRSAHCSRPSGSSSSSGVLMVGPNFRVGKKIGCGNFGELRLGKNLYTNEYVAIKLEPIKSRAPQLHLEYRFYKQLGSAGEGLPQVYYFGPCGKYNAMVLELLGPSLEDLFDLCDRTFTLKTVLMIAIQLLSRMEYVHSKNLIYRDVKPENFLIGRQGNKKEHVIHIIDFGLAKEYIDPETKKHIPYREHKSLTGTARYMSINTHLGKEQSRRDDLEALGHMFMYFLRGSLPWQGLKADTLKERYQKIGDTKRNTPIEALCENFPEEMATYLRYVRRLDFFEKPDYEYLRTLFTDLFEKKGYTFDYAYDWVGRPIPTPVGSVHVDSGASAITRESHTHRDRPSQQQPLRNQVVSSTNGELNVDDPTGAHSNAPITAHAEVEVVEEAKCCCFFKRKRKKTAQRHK

Chain of CK1ε (P49674 whole entry): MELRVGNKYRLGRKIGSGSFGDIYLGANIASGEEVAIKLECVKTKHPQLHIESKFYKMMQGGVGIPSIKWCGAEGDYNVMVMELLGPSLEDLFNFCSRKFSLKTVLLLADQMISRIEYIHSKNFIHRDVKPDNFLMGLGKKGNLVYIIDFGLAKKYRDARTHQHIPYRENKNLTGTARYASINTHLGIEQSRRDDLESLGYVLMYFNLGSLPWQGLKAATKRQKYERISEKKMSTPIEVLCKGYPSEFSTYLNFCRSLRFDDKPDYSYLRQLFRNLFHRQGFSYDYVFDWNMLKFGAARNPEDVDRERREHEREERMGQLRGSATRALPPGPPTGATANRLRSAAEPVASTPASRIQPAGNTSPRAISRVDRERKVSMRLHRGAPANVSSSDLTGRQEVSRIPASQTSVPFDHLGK

Cc1cc(/C=C/c2ccc3cc(N(C)C)ccc3[n+]2C)c(C)n1-c1ccccc1 [compound 1, 6-(dimethylamino)-2-[2-(2,5-dimethyl-1-phenyl-1H-pyrrol-3-yl)ethenyl]-1-me thyl-quinolinium pamoate salt]
fluorescence ligand dot blot with purified kinase at 10 nM pyrvinium [1]: Pyrvinium binds all full-length CK1 isoforms tested but only activates CK1α.
fluorescence ligand dot blot with purified kinase at 10 nM pyrvinium [2]: Pyrvinium binds all full-length CK1 isoforms tested but only activates CK1α.
